Paper PMC9549831 (European Journal of Clinical Pharmacology, 2022)

What was measured:
[1] = design: method as in PMID 12076989; conditions: after co-administration of diltiazem with saxagliptin; cited from earlier work
PDE5 = conditions: relative to sildenafil; cited from earlier work
[2] = cited from earlier work
[3] = independent of total drug concentrations; cited from earlier work
isolated aorta rings = conditions: cited from earlier work
[4] = healthy subjects and patients with type 2 diabetes; cited from earlier work
[5] = design: method as in PMID 33459228; conditions: cited from earlier work
[6] = Safety and tolerability: adverse effects, blood pressure, pulse rate in healthy volunteers; assay type: in vivo, human; conditions: for incidence of reported headache: 18 volunteers
Description: (§1) Blood glucose levels were measured for all volunteers on the ninth and the thirteenth day before dosing and at 0.5, 0.75, 1, 1.5, 2, 2.5, 3, 12, and 24 h; the main outcome measures were maximum plasma glucose concentration (Gmax) and the area under the blood glucose concentration–time curve (AUCg0-t). Blood pressure (systolic and diastolic) and heart rate were measured before dosing and at 2, 4, 6, 8, and 10 h after drug administration.
Blood pressure, pulse rate, and body temperature together with blood glucose levels were reported all over the study. Moreover, possible side and/or adverse reactions or events to the study formulations were recorded to assure the safety and tolerability of different drug administrations.

clinical = conditions: human, in vivo
Description: Mobile phase composition is 25 mM ammonium acetate: methanol 25:[…]. The flow rate was set at 0.7 ml/min. Injection volume was set at 2.5 ul. […] Before transferring the plasma sample to the MCX cartridge, acidification of the plasma sample with […] of (formic acid 2%) was performed. The sample was washed with 200 ul of 2% formic acid in water followed by 200 ul of methanol. […] Then 350 ul of water was added to the eluent and vortexed. After that, the diluted eluent was transferred to a vial insert, and 2.5 μl was injected into LC/MS/ MS system for analysis. […] The limit of quantification was defined considering the method sensitivity, the precision, and the accuracy. To evaluate precision and accuracy, specific quality control samples were included in the validation procedure. […] Blood samples were collected into tubes containing EDTA disodium as an anticoagulant slightly shaken and centrifuged at approximately 4000 r.p.m. for 10 min. After centrifugation, plasma samples were transferred directly into a 5 ml-plastic tube. These samples were immediately stored at the study site in a freezer at a nominal temperature - 80 °C until analysis. The label of the collecting tubes had the study's code number, subject number, study period, and the designated sample number. […] Pharmacokinetic parameters were determined and calculated. […] The pharmacokinetic analysis was performed using the SAS program. All results were expressed as mean ± SD. Paired T-Test was used to compare results, and the level of significance was considered at (P < 0.05).

[7] = Pharmacodynamic parameters: blood glucose levels (Gmax, AUCg0-t) in healthy volunteers; assay type: in vivo, human
Description: as §1

[8] = oral administration, fasting conditions

N#C[C@@H]1C[C@@H]2C[C@@H]2N1C(=O)[C@@H](N)C12CC3CC(O)(CC(O)(C3)C1)C2 [5-hydroxy saxagliptin]
decrease of geometric mean AUC0-inf [1]: 34%
decrease of geometric mean Cmax [1]: 43%

CCCc1nn(C)c2c(=O)[nH]c(-c3cc(S(=O)(=O)N4CCNCC4)ccc3OCC)nc12 [N-desmethyl metabolite]
in vitro potency for PDE5 relative to the parent drug (PDE5): approximately 50%
plasma concentrations relative to those found for sildenafil [2]: approximately 40%
terminal half-life (t1/2) [2]: approximately 4 h
bound to plasma proteins [3]: 96%

N#C[C@@H]1C[C@@H]2C[C@@H]2N1C(=O)[C@@H](N)C12CC3CC(CC(O)(C3)C1)C2 [saxagliptin]
rise of NO/ONOO- rate (isolated aorta rings): about 40%
stimulation of NO release (isolated aorta rings): about 18%
mean half-life [4]: 2.2 to 3.8 h
time to reach maximal plasma concentration [4]: < 2 h
overall systemic exposure to saxagliptin [AUCs] ([5]; co-administration of simvastatin 40 mg): not affected
effect on CYP3A4 activity ([5]; concluded from simvastatin pharmacokinetics at steady state): neither induces nor inhibits CYP3A4 activity
blood pressure and pulse rate ([6]; after co-administration of saxagliptin and sildenafil vs alone (P > 0.001)): comparable
incidence of reported headache ([6]; co-administration of saxagliptin 5 mg and sildenafil 50 mg): 44.4%
incidence of reported headache ([6]; drug administered alone): 0%
AUC(0-inf) (clinical; 5 mg): 113 ng·h/mL
AUC(0-t) (clinical; 5 mg): 112 ng·h/mL
Tmax (clinical; 5 mg): 1.24 h
maximum glucose concentration (Gmax) ([7]; saxagliptin 5 mg + sildenafil 50 mg co-administered): 95.6 mg/dL
maximum glucose concentration (Gmax) ([7]; saxagliptin 5 mg multiple doses alone): 93.7 mg/dL

CCCc1nn(C)c2c(=O)[nH]c(-c3cc(S(=O)(=O)N4CCN(C)CC4)ccc3OCC)nc12 [sildenafil]
incidence of reported headache ([6]; drug administered alone): 33.3%
absolute oral bioavailability, range [2]: 25–63%
mean absolute oral bioavailability [2]: 41%
mean steady-state volume of distribution [2]: 105 L
terminal half-life (t1/2) [2]: 3 to 5 h
total body clearance [2]: 41 L/h
median time to Cmax [2, 8]: 60 min
time to maximum observed plasma concentration (Cmax) [2, 8]: 30 to 120 min
AUC(0-t) (clinical; 50 mg): 977 ng·h/mL
Cmax (clinical; 50 mg): 302 ng/mL
Tmax (clinical; 50 mg): 0.977 h
